Test results: patent US20160279101A1, “PHARMACEUTICAL COMPOSITION FOR TREATMENT OF PNEUMONIA ASSOCIATED WITH FUSARIUM FUNGUS” (priority 2013, published 2016)
Values after ≈ are worked out from the molar mass of the structure shown. Structures can show the parent of a compound that is named as a salt.

Tests used:
Assay type in all cases: cell-based
Fusarium solani = experiment: MIC by micro-liquid dilution method (Alamar Blue assay), Fusarium solani; design: unit not given here; settings: 10 clinical strains; 35° C., 72 hours; MIC = minimum concentration with IC not less than 80%
Description: (§1) The MICs of each type of antifungal agent against Fusarium oxysporum and Fusarium solani were determined. That is, each fungus was cultured at 35° C. for 72 hours using, as a medium, “RPMI 1640/MOPS liquid medium supplemented with 10% Alamar Blue (registered trademark) (pH 7.0)” (see Shinobu Ishigaki et al., The Journal of the Japanese Association for Infectious Diseases, vol. 74(3) (2000) pp. 221-230) according to the micro-liquid dilution method (Alamar Blue assay), which is in accordance with the CLSI standardization and the Japanese Society for Medical Mycology method. Thereafter, O.D. was measured for investigating color change of the oxidation-reduction indicator Alamar Blue, to determine the minimum inhibitory concentration (MIC). That is, the growth inhibition rate (IC) was determined based on the O.D. value, and the minimum concentration of the agent at which an IC of not less than 80% was achieved was determined as MIC. Two strains of Fusarium oxysporum (clinically separated strains; Teikyo University Institute of Medical Mycology), and 10 strains of Fusarium solani (clinically separated strains; Institute of Dermatology (Thailand) and Teikyo University Institute of Medical Mycology) were used.

Fusarium oxysporum = experiment: MIC by micro-liquid dilution method (Alamar Blue assay), Fusarium oxysporum; design: unit not given here; settings: 2 clinical strains; 35° C., 72 hours; MIC = minimum concentration with IC not less than 80%
Description: as §1

Trichomonas vaginalis = experiment: Growth inhibition of Trichomonas vaginalis in Trichomonas Medium F (neutral red colour, microscopy); settings: for MIC: clinically isolated Trichomonas vaginalis, read-out: minimum inhibitory concentration (MIC); for MIC / Color / Result of observation under the microscope: 72 hours; for Color: 37° C.; for Result of observation under the microscope: inverted microscope
Description: Among the compounds represented by General Formula (1), luliconazole was selected for investigation of the effect on Trichomonas vaginalis. That is, 5×10^6 cells of clinically isolated Trichomonas vaginalis were seeded in Trichomonas Medium F, manufactured by Fuji Pharma Industrial Co., Ltd., which contains neutral red as a marker (6.5 mL, contained in a tube). Preculture was performed for 72 hours (preculture). After confirming that the Trichomonas has grown to actively produce acid and to thereby cause changing of the color of neutral red to yellow, 100 μL of the obtained preculture liquid was added to Trichomonas Medium F to be used for main culture. To resulting mixture, 0.5 mL of each test liquid was further added. The number of Trichomonas cells in the preculture liquid at this time was 1.5×10^5 cells/mL. Three types of test liquids, that is, solutions of luliconazole in 10% methanol/saline solution at luliconazole concentrations of 200 μM (final concentration, 35.2 μM), 100 μM (final concentration, 17.6 μM) and 50 μM (final concentration, 8.8 μM), were provided. A control was prepared by adding 0.5 mL of a vehicle as a test liquid. As the vehicle, 10% methanol/saline solution (final concentration, 0 μM) was used. After the addition, each resulting mixture was stirred well, and culture was carried out at 37° C. for 72 hours. Thereafter, the color was judged, and the condition of Trichomonas cells was observed under an inverted microscope.
The same study as in Example 1 was carried out except that lanoconazole was used instead of luliconazole.

[1] = tested on: Chlamydia trachomatis (D/UW3/Cx); experiment: Anti-intracellular parasite action: Chlamydia trachomatis cultured in HeLa 229 cells, fluorescent staining of inclusion bodies
Description: FIG. 1 is a diagram (photographs) illustrating the results of observation of chlamydial inclusion bodies after luliconazole treatment, which observation was carried out by fluorescent staining using a Chlamydia FA reagent “Seiken”.
Using Chlamydia trachomatis (D/UW3/Cx), the anti-intracellular parasite action was examined. That is, Chlamydia trachomatis was cultured using HeLa 229 cells as a host in the presence of a 2-fold dilution series of 8 to 64 μg/mL luliconazole. The culture was carried out using, as a medium, MEM supplemented with 1 μg/mL cyclohexamide and 8% heat-inactivated FBS, at 37° C. under 5% carbon dioxide for 72 hours. Thereafter, inclusion bodies were fluorescently stained in apple green using a Chlamydia FA reagent “Seiken” (manufactured by Denka Seiken Co., Ltd.), and observed under a fluorescence microscope.

[2] = final concentration 8.8 μM, neutral red marker
[3] = final concentration 17.6 μM, neutral red marker
[4] = final concentration 35.2 μM, neutral red marker (yellow = acid production by growing Trichomonas)

SMILES | MIC, F. solani (10), lower line of each agent (range) (Fusarium solani) | MIC, F. oxysporum (2), lower line of each agent (range) (Fusarium oxysporum) | also measured
C[C@@H]1[C@H](O)[C@@H](C)/C=C/C=C/C=C/C=C/C=C/C=C/C=C/[C@H](O[C@@H]2O[C@H](C)[C@@H](O)[C@H](N)[C@@H]2O)C[C@@H]2O[C@](O)(C[C@@H](O)C[C@@H](O)[C@H](O)CC[C@@H](O)C[C@@H](O)CC(=O)O[C@H]1C)C[C@H](O)[C@H]2C(=O)O [AMB, Amphotericin B] | 2-4 | – | –
CCC(C)(C)c1ccc(CC(C)CN2C[C@@H](C)O[C@@H](C)C2)cc1 (stereo partly drawn) [AMO, Amorolfine hydrochloride] | >4 | >4 | –
c1ccc(-c2ccc(C(c3ccccc3)n3ccnc3)cc2)cc1 (stereo not drawn) [BFZ, Bifonazole] | >4 | >4 | –
Clc1ccccc1C(c1ccccc1)(c1ccccc1)n1ccnc1 [CTZ, Clotrimazole] | >4 | >4 | –
C=C1CCN([C@H](C)[C@](O)(Cn2cncn2)c2ccc(F)cc2F)CC1 [EFCZ, Efinaconazole] | – | 0.25-1 | –
OC(Cn1cncn1)(Cn1cncn1)c1ccc(F)cc1F [FCZ, Fluconazole] | >4 | >4 | –
CCC(C)n1ncn(-c2ccc(N3CCN(c4ccc(OCC5COC(Cn6cncn6)(c6ccc(Cl)cc6Cl)O5)cc4)CC3)cc2)c1=O (stereo not drawn) [ITZ, Itraconazole] | >4 | >4 | –
CC(=O)N1CCN(c2ccc(OCC3COC(Cn4ccnc4)(c4ccc(Cl)cc4Cl)O3)cc2)CC1 (stereo not drawn) [KCZ, Ketoconazole] | – | >4 | –
Clc1ccc(COC(Cn2ccnc2)c2ccc(Cl)cc2Cl)c(Cl)c1 (stereo not drawn) [MCZ, Miconazole nitrate] | – | >4 | –
C[C@@H](c1ncncc1F)[C@](O)(Cn1cncn1)c1ccc(F)cc1F [VCZ, Voriconazole] | – | >4 | –
N#C/C(=C1/SCC(c2ccccc2Cl)S1)n1ccnc1 (stereo not drawn) [lanoconazole, 4-(2-chlorophenyl)-1,3-dithiolan-2-ylidene-1-imidazolylacetonitrile] | 0.063-0.25 | 0.063-0.13 | MIC (Trichomonas vaginalis): ~17.6 µM (≈ 5.63 µg/mL); Color (Trichomonas vaginalis; [2]): Yellow; Color (Trichomonas vaginalis; [3]): Red; Color (Trichomonas vaginalis; [4]): Red; Result of observation under the microscope (Trichomonas vaginalis; final concentration 35.2 μM): No Trichomonas cell was found; growth of Trichomonas (Trichomonas vaginalis; same study as Example 1, no concentration stated): inhibit the growth of Trichomonas
N#C/C(=C1/SC[C@@H](c2ccc(Cl)cc2Cl)S1)n1ccnc1 [luliconazole, (R)-(−)-(E)-[4-(2,4-dichlorophenyl)-1,3-dithiolan-2-ylidene]-1-imidazolylacetonitrile] | 0.016-0.063 | 0.016-0.031 | observation of chlamydial inclusion bodies ([1]; 8 μg/mL, FIG. 1 panel (A)): chlamydial inclusion bodies were found; observation of chlamydial inclusion bodies ([1]; 16 μg/mL, FIG. 1 panel (B)): chlamydial inclusion bodies were found; observation of chlamydial inclusion bodies ([1]; 32 μg/mL, FIG. 1 panel (C)): no inclusion body was found; MIC ([1]; Chlamydia trachomatis, HeLa 229 host cells, 72 hours, 2-fold dilution series 8 to 64 μg/mL, read-out: MIC against Chlamydia trachomatis): 32 µg/mL (≈ 90.3 µM); growth of Trichomonas (Trichomonas vaginalis; 8.8 μM): inhibited the growth of Trichomonas; MIC (Trichomonas vaginalis): ~8.8 µM (≈ 3.12 µg/mL); Color (Trichomonas vaginalis; [2]): Yellow; Color (Trichomonas vaginalis; [3]): Red; Result of observation under the microscope (Trichomonas vaginalis; final concentration 17.6 μM): No Trichomonas cell was found; Color (Trichomonas vaginalis; [4]): Red; Result of observation under the microscope (Trichomonas vaginalis; final concentration 35.2 μM): No Trichomonas cell was found
